Assay results as given in BindingDB's records for doi:10.1002/cbic.201402650 (Goethe Universität Frankfurt, 2015).

Biological target: T1, Juvenile hormone epoxide hydrolase (Manduca sexta, UniProt Q25489)
T1 sequence (Q25489 whole entry): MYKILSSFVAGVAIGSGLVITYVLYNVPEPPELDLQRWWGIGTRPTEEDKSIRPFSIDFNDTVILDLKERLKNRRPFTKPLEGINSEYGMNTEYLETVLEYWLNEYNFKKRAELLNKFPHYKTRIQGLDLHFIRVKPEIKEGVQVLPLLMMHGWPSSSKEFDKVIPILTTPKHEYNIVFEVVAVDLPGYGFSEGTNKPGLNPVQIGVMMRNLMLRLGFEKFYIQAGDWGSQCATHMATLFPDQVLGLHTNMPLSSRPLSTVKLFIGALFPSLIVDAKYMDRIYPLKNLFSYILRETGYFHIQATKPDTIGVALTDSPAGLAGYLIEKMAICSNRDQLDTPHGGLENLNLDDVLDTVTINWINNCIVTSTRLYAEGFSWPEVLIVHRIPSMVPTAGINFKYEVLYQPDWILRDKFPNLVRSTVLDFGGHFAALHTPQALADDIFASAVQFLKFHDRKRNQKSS
Assay: Quantitative Reverse Transcriptase Assay
From the text: We used quantitative reverse-transcriptase PCR to measure the RNA levels of certain AMP genes (lysozyme, gallerimycin, moricin and cecropin) in caterpillars of M. sexta and the greater waxmoth G. mellonella challenged with Serratia entomophila or Salmonella enterica, respectively, following injection of different urea lipid compounds.

Structure (SMILES) | IC50
CC(C)CCCCCCCCNC(N)=O [N-(9-Methyldecyl) urea (2)] | > 100 µM
CC(C)CCCCCCCCCCNC(N)=O [N-(11-Methyldodecyl) urea (5)] | > 100 µM
CCCCCCCCCCCCNC(N)=O [N-Dodecyl urea (6)] | > 100 µM
CNC(=O)NCCCCCCCCC(C)C [N-Methyl-N -(9-methyldecyl) urea (1)] | 6.5 µM
CNC(=O)NCCCCCCCCCCC(C)C [N-Methyl-N -(11-methyldodecyl) urea (3)] | 30 µM
CCCCCCCCCCCCNC(=O)NC [N-Methyl-N -dodecyl urea (4)] | 10.7 µM
CCCCCCCCCNC(=O)NC [N-Methyl-N -nonyl urea (11)] | > 100 µM
CCCCCCCCCCCCCNC(=O)NC [N-Methyl-N -tridecyl urea (9)] | 10 µM
CCCCCCCCCCCCCNC(N)=O [N-Tridecyl urea (10)] | > 100 µM
CCCCCCCCCCCNC(=O)NC [N-methyl-N -undecyl urea (7)] | 4.3 µM
CCCCCCCCCNC(N)=O [N-nonyl urea (12)] | > 100 µM
CCCCCCCCCCCCNC(=O)NCC(C)C [US8815951, 478] | 2.3 µM
